Tests used:
Assay type in all cases: cell-based
Conditions in all cases: MTT assay, 72 hour incubation
[1] = system: SW620 cell line; test: MTT cytotoxicity assay, SW620
Protocol: (§1) Tumor cell lines were maintained in RPMI1640 medium supplemented with 10% heat-inactivated fetal bovine serum, 2 mM L-glutamine and 1 mM sodium pyruvate. 1800 cells per well were seeded in a volume of 180 μl in a 96-well flat bottom polystyrene plate. The cells were allowed to adhere overnight at 37° C. in a CO2 incubator. Ligands were initially formulated in DMSO, and stocks stored at −80° C. They were then further formulated at lox concentration in RPMI1640 medium. 20 ul of diluted samples were added into each treatment well. On each plate, blank wells with no cells, and untreated wells containing cells, were included. Plates were then cultured at 37° C. in a CO2 incubator for 72 hrs. Cytotoxicity was evaluated using a tetrazolium salt-based assay, the MTT assay. After 72 hours, the supernatant was removed from each well and 200 μl of a sterile filtered 500 μg/ml MTT solution in water added to each well. The plates were then incubated at 37° C. in a CO2 incubator for 4 hrs. The supernatant was then removed and the formazan crystals formed solubilized by adding 150 μl of DMSO to each well. The plate was then read on a plate reader at 540 nm, and percentage cell survival calculated as follows: ((mean absorbance treated wells at concentration x−mean absorbance blank wells)[…](mean absorbance untreated wells at concentration x−mean absorbance blank wells))×100. Data were plotted as concentration in nM vs. % cell survival in Microsoft Excel, and IC50 values (concentration where cell survival is reduced by a half) were determined from the graph.

[2] = system: SW48 cell line; test: MTT cytotoxicity assay, SW48
Protocol: as §1

[3] = system: LIM1215 cell line; test: MTT cytotoxicity assay, LIM1215
Protocol: as §1

COc1cc2c(cc1OCc1cccc(CC(=O)N3C[C@@H](C)c4c3cc(O)c3ccccc43)c1)NC(=O)[C@@H]1CCCCN1C2=O [Compound 143, (S)-3-((3-(2-((S)-5-Hydroxy-1-methyl-1,2-dihydro-3H-benzo[e]indol-3-yl)-2-oxoethyl)benzyl)oxy)-2-methoxy-7,8,9,10-tetrahydrobenzo[e]pyrido[1,2-a][1,4]diazepine-6,12(5H,6aH)-dione]
Not active: Cytotoxicity SW620 (72 hours) [1] | Cytotoxicity SW48 (72 hrs) [2] | Cytotoxicity LIM1215 (72 hours) [3]
